From patent US20200255489A1, “Novel Senolytic Peptides” (priority 2017, published 2020)
Where a SMILES comes first, the peptide text is derived from it. [ ]: non-standard residue; d: D form.

How the values were obtained:
[1] = Acute Systemic Toxicity Test (ISO 10993-11); type: in vivo, mice (BALB/c); details: BALB/c
Protocol: Senolytic Peptides were evaluated for toxicity according to Acute Sytemic Toxicity Test (ISO 10993-11). This study was performed in strict accordance with the protocol approved by the TUBITAK-MAM Animal Ethics Committee. All the mice used in this study were of a BALB/c background at 8-12 weeks of age. All mice were kept in group housing until the start of the experiment after which they were placed in separate cages (5 mice per cage). The Senolytic Peptide (SEQ ID NO: 11) is administered intravenously using a mice model (BALB/c) at doses of 1, 10, 50 and 100 mg/kg and vehicle alone is also administered using single injections (n=5, per group). Control and Senolytic Peptide (SEQ ID NO: 11) injected mice were sacrificed 24 hours later for pathological examination. […] Blood samples were subsequently collected for determination and analysis of hematological and biochemical parameters. Plasma alanine aminotransferase (ALT), aspartate aminotransferase (AST), alkaline phosphatase (ALP) activities and blood urea, glucose, triglyceride levels were determined, inter alia, full hematological parameters.

[2] = system: senescent and non-senescent WI-38 cells; assay: XTT viability assay on Doxorubicin induced senescent and non-senescent WI-38 fibroblasts; type: cell-based, human; details: senescence by 100 NM Doxorubicin, total doses 0 to 100 pM on 3 consecutive days, XTT after 7 days
Protocol: (§1) WI-38 cells (ATCC #CCL-75, a diploid primary human fibroblast adherent cell line derived from fetal lung tissue) were treated with a chemotherapy agent, 100 NM Doxorubicin twice every other day to induce senescence. […] Later these cells were used for experiments comparing them to their non-Doxorubicin (non-senescent) treated counterparts. Senescent and non-senescent WI-38 fibroblasts were plated for XTT viability assays. 7000 senescent (obtained as described above) and 2000 non-senescent WI-38 fibroblasts were plated in 96-well plates incubated. The cells were treated with mock (PBS) or the Senolytic Peptide (SEQ ID NO: 11) at total doses ranging from 0 to 100 pM. The mock and peptide treatments were carried out for 3 consecutive days (24, 48 and 72 hours) after plating. After treatment period, the cells were incubated for 7 days until XTT-based viability was analyzed according to the manufacturer's instructions. […]
(§2) WI-38 cells (ATCC #CCL-75, a diploid primary human fibroblast adherent cell line derived from fetal lung tissue) and IMR90 cells (ATCC #CCL-186, a diploid primary human fibroblast adherent cell line derived from fetal lung tissue) were treated with a chemotherapy agent, 100 NM Doxorubicin twice every other day to induce senescence. […] After treatment period, the cells were incubated for 7 days until XTT-based viability was analyzed according to the manufacturer's instructions. […]

[3] = system: senescent and non-senescent IMR90 cells; assay: XTT viability assay on Doxorubicin induced senescent and non-senescent IMR90 fibroblasts; type: cell-based, human; details: senescence by 100 NM Doxorubicin, total doses 0 to 100 pM on 3 consecutive days, XTT after 7 days
Protocol: as §1, with “IMR-90 cells” for “WI-38 cells”, “(ATCC #CCL-186,” for “(ATCC #CCL-75,”, “with” for “with a chemotherapy agent,”, “day for senescence induction.” for “day to induce senescence.”, “non-senescent IMR90” for “non-senescent WI-38”, “Senolytic Peptide(s)” for “Senolytic Peptide (SEQ ID NO: 11)”
as §2

[4] = system: Doxorubicin induced renal senescence; assay: Doxorubicin induced chemotoxicity / renal senescence in mice; type: in vivo; details: male BALB/c mice, doxorubicin 8 mg/kg i.p. twice
Protocol: This study was performed in strict accordance with the protocol approved by the TUBITAK-MAM Animal Ethics Committee. All the mice used in this study were of a BALB/c background at 8-12 weeks of age. All mice were kept in group housing until the start of the experiment after which they were placed in separate cages (4 mice per cage). Only male mice were used throughout the study. Where feasible, littermates were used. All mice were randomly assigned to experimental group. Mice were fed ad libidum. Initial weights of the mice were recorded. Mice were divided into three groups (A-No Treatment, B-Doxorubicin Treatment+Mock Treatment, C-Doxorubicin Treatment+Senolytic Peptide Treatment). Doxorubicin induced chemotoxicity was used for the induction of renal senescence in mice. Mice in Group B and C were intraperitoneally administered with doxorubicin (8 mg/kg) twice (at 0 and 10th day). Weights of the mice were recorded three times a week. 24 days after 2nd Doxorubicin treatment, PBS (mock Treatment) was administered intravenously to Group B and Senolytic Peptide (SEQ ID NO: 12) (3×10 mg/kg) was administered to Group C in three days (every other day) (FIG. 17A). The mice health, activity and appearance were monitored and they were sacrificed 14 days later. Gross pathology and pathology of the mice analysed. Mice organs and tissues are flash-frozen in liquid nitrogen and embedded in OCT and kept at −80 C. 10 micron thick mid-sagittal cryo-sections of the kidney were taken and SA-B-Gal activity was assayed as in Example 1-3. Doxorubicin induced alopecia and caused weight loss in mice and both conditions are reversed upon the Senolytic Peptide (SEQ ID NO: 12) Treatment (FIG. 17B).

[5] = peptide 3x10 mg/kg every other day

Compound | toxicity to the physical appearance of the mice ([1]; single intravenous injection 1, 10, 50 and 100 mg/kg, within 24 hours of injection) | toxicity by hematological parameters, AST, ALT, ALP levels and gross pathology ([1]; single intravenous injection, even at 100 mg/kg, 24 hours) | effect on viability of senescent versus non-senescent cells (XTT) [2] | effect on viability of senescent versus non-senescent cells (XTT) [3] | Doxorubicin induced alopecia [4, 5] | Doxorubicin induced weight loss [4, 5] | senescent cells in kidneys (SA-B-Gal activity of kidney sections) ([4]; peptide 3x10 mg/kg, sacrificed 14 days later)
CC(C)C[C@H](NC(=O)[C@@H](NC(=O)[C@H](CC(C)C)NC(=O)[C@H](CCCNC(=N)N)NC(=O)[C@H](CCCCN)NC(=O)[C@H](CCCNC(=N)N)NC(=O)[C@@H]1CCCN1C(=O)[C@H](C)NC(=O)[C@H](CCCNC(=N)N)NC(=O)[C@H](CCCNC(=N)N)NC(=O)[C@H](CCCNC(=N)N)NC(=O)[C@H](CCCNC(=N)N)NC(=O)[C@H](CCCNC(=N)N)NC(=O)[C@H](CCCNC(=N)N)NC(=O)[C@H](CCCNC(=N)N)NC(=O)[C@H](CCCNC(=N)N)NC(=O)[C@H](CCCNC(=N)N)NC(=O)[C@H](CCCNC(=N)N)NC(=O)[C@H](CCCNC(=N)N)NC(=O)[C@H](CCCNC(=N)N)NC(=O)[C@H](CCCNC(=N)N)NC(=O)[C@H](CCCNC(=N)N)NC(=O)CNC(=O)[C@H](Cc1c[nH]c2ccccc12)NC(=O)[C@H](C)NC(=O)[C@H](CCCNC(=N)N)NC(=O)[C@H](CCCNC(=N)N)NC(=O)[C@H](CCCNC(=N)N)NC(=O)[C@H](CCCNC(=N)N)NC(=O)CNC(=O)CNC(=O)[C@H](CCCCN)NC(=O)[C@H](CCCNC(=N)N)NC(=O)[C@@H]1CCCN1C(=O)[C@H](N)CCCNC(=N)N)[C@@H](C)O)C(=O)O [SEQ ID NO: 11, dRPRKGGRRRR AWGRRRRRRR RRRRRRRAPR KRLTL] (H-[dR]PRKGGRRRRAWGRRRRRRRRRRRRRRAPRKRLTL-OH) | No toxicity | no toxicity | – | – | – | – | –
PRKGGSRRRAWGNQRYARLIRQAIESAPEKRLTLA (PRKGGSRRRAWGNQRYARLIRQAIESAPEKRLTLA; Based on Homo sapiens sequence) [SEQ ID NO: 12] | – | – | selectively decreased the viability | selectively decreased the viability | reversed | reversed | cleared senescent cells in kidneys
